For series [1], the system named is multidrug-resistant (K1) strain of P. falciparum. The experiment in a line: In vitro asexual blood-stage antiplasmodium pLDH assay, K1 strain. Format: cell-based. The note with it: Plasmodium falciparum, 72 h, n ≥ 3, read-out: In vitro antiplasmodium activity IC50 PfK1 strain. On the procedure: (§1) Compounds were screened against multi-drug-resistant (K1) and sensitive (NF54) strains of P. falciparum in vitro using a parasite lactate dehydrogenase assay (pLDH) (the method is described fully in the Supporting Information). […]
(§2) In vitro Asexual Blood Stage Antiplasmodium Assay
(§3) Parasites were cultured as per the method of Trager and Jensen,1 with modifications. IC50 values were determined using parasite lactate dehydrogenase as a marker for survival (Makler […]
(§4) et al, 1993). The test samples were prepared to a 10 mmol/L stock solution in 100% DMSO.
(§5) Samples were tested as a suspension if not completely dissolved. Further dilutions to the desired starting concentration were freshly prepared in growth media on each occasion of the experiment. The standard antimalarial drugs chloroquine (CQ) and artesunate (Arts) were used as the reference drug in all experiments. A full dose-response was performed for all compounds in a 96-well plate to determine the concentration inhibiting 50% of parasite growth (IC50– value). Test samples were tested at a starting concentration of 6mmol/L, which was then serially diluted 2-fold in growth medium to generate the tested concentration range. The same dilution technique was used for all samples. CQ and Arts were tested from a starting concentration of 1µg/mL. The highest concentration of solvent to which the parasites were exposed was <0.1% and has no measurable effect on the parasite viability (data not shown).
(§6) The assay plate was incubated at 37 °C for 72h in a sealed gas chamber under 3% O2 and 4% CO2 with the balance being N2. After 72h, the wells in the assay plate were gently resuspended, and 15µL from each well was transferred to a duplicate plate containing 100µL of Malstat reagent and 25µL of nitroblue tetrazolium solution in each well. Plates were left to develop for 20 minutes in the dark and then absorbance of each well was quantified using a spectrophotometer at 620nm wavelength.
(§7) The remaining population of parasites at each concentration of the test compound was determined by comparing the absorbance of each well to the absorbance of a well containing […]
(§8) the drug-free control. […]
(§9) The initial 100 µg/mL solution is serially diluted 10-

The nature of series [2]: In vitro cytotoxicity MTT assay. The series is classed as cell-based, Chinese hamster. The note with it: Chinese hamster, Chinese hamster ovarian (CHO) cells; MTT assay. Here is the method:
(§10) In vitro cytotoxicity was performed on the Chinese Hamster Ovarian cell line by measuring cellular growth and survival calorimetrically through the MTT assay.[29],[30] The formation of tetrazolium salt was used as a measure of chemosensitivity and growth. (Details of this assay is described in the Supporting Information.) page 19: et al, 1993). The test samples were prepared to a 10 mmol/L stock solution in 100% DMSO. Samples were tested as a suspension if not completely dissolved. Further dilutions to the desired starting concentration were freshly prepared in growth media on each occasion of the experiment. The standard antimalarial drugs chloroquine (CQ) and artesunate (Arts) were used as the reference drug in all experiments. A full dose-response was performed for all compounds […] value). Test samples were tested at a starting concentration of 6mmol/L, which was then serially diluted 2-fold in growth medium to generate the tested concentration range. The same dilution technique was used for all samples. CQ and Arts were tested from a starting concentration of 1μg/mL. The highest concentration of solvent to which the parasites were exposed was <0.1% and has no measurable effect on the parasite viability (data not shown). The assay plate was incubated at 37 °C for 72h in a sealed gas chamber under 3% O2 and 4% CO2 with the balance being N2. After 72h, the wells in the assay plate were gently resuspended, and 15μL from each well was transferred to a duplicate plate containing 100μL of Malstat reagent and 25μL of nitroblue tetrazolium solution in each well. Plates were left to develop for 20 minutes in the dark and then absorbance of each well was quantified using a spectrophotometer at 620nm wavelength. The remaining population of parasites at each concentration of the test compound was determined by comparing the absorbance of each well to the absorbance of a well containing the drug-free control. Survival was plotted against concentration and the IC50 values were obtained using a non-linear dose-response curve fitting analysis via the Dotmatics software platform.2 In vitro Cytotoxicity Assay In vitro cytotoxicity was performed on the Chinese Hamster Ovarian cell line by measuring […] diphenyltetrazolium bromide (MTT) assay.3,4 The formation of tetrazolium salt was used as a measure of chemosensitivity and growth. 2 mg/mL stock solutions of the test compounds were prepared in DMSO and stored at -20 °C until required. The stock solution was subsequently diluted with the assay medium to make up an initial concentration of 100 μg/mL. The initial 100 μg/mL solution is serially diluted 10- S19 page 20: fold to attain six assay concentrations of 100-0.001 μg/mL. […] was used as the reference compound in this assay. The highest concentration of DMSO, which was used as the negative control, had no measurable effect on cell viability. After 44 hours of exposure of the cells to the test compounds, a solution of MTT was added. This was followed by an additional 4 hours of incubation at 37 °C. The assay plates were centrifuged, medium removed, and DMSO was added to the crystals. The amount of formazan was ascertained by measuring the absorbance at 540 nm. GraphPad Prism software was then used to generate IC50 values through a non-linear dose-response curve analysis. β-Hematin Inhibition Assay 20 mM stock solutions of controls and test compounds were made in DMSO. A solution […] was added to every well in columns 1-11 of a 96-well plate. 140 μL of water and 40 μL of 305.5 μM NP-40 were added to column 12 to mediate the formation of beta-hematin. 20 μL of test compounds (20 mM) were added to column 12 and 100 μL of this solution serially diluted to column 2, leaving column 1 blank (0 μM of test compound). 178.8 μL aliquot of hematin stock was suspended in 20 ml of a 1 M acetate buffer at pH 4.9. 100 μL of this hematin suspension was then added into each well, and the plates were incubated for ±5 hrs at 37°C. […]
On the technique in general: Tetrazolium assays rely on reduction of a dye to a coloured formazan, in cell work by metabolically active cells.

Series [3] relates to Chinese hamster ovarian (CHO) cell line. The experiment in a line: In vitro cytotoxicity MTT assay. The note with it: CHO vs PfNF54. Format: cell-based. Here is the method: as §10
Series [4] relates to chloroquine-sensitive (NF54) strain of P. falciparum. Briefly: In vitro asexual blood-stage antiplasmodium pLDH assay, NF54 strain. Format: cell-based. As to conditions: Plasmodium falciparum, NF54; pLDH, 72 h, n ≥ 3; read-out: In vitro antiplasmodium activity IC50 PfNF54 strain. Here is the method: as §1, §2, §3, §4, §5, §6, §7, §8, §9
Series [5] relates to β-hematin. Briefly: β-Hematin inhibition assay (BHIA), cell-free NP-40 mediated. The series is classed as biochemical. The note with it: mean of n = 3. On the procedure:
page 20: fold to attain six assay concentrations of 100-0.001 μg/mL. […] was used as the reference compound in this assay. The highest concentration of DMSO, which was used as the negative control, had no measurable effect on cell viability. After 44 hours of exposure of the cells to the test compounds, a solution of MTT was added. This was followed by an additional 4 hours of incubation at 37 °C. The assay plates were centrifuged, medium removed, and DMSO was added to the crystals. The amount of formazan was ascertained by measuring the absorbance at 540 nm. GraphPad Prism software was then used to generate IC50 values through a non-linear dose-response curve analysis. β-Hematin Inhibition Assay 20 mM stock solutions of controls and test compounds were made in DMSO. A solution […] was added to every well in columns 1-11 of a 96-well plate. 140 μL of water and 40 μL of 305.5 μM NP-40 were added to column 12 to mediate the formation of beta-hematin. 20 μL of test compounds (20 mM) were added to column 12 and 100 μL of this solution serially diluted to column 2, leaving column 1 blank (0 μM of test compound). 178.8 μL aliquot of hematin stock was suspended in 20 ml of a 1 M acetate buffer at pH 4.9. 100 μL of this hematin […] pH 7.4 and 50% pyridine) and 60 μL of acetone were added to all wells. The absorbances of plate wells were recorded at 405 nm on a SpectraMax plate reader. Sigmoidal dose-response curves with variable slopes were fitted to the absorbance data using GraphPad Prism to obtain the IC50 values for each compound. In vitro Microsomal Stability Assay The in vitro microsomal stability assay was performed in duplicate in a 96-well micro titre […] individually in human (pool of 50, mixed gender), rat (pool of 711, male Sprague Dawley) and mouse (pool of 1634, male CD1) liver microsomes (final protein concentration of 0.4 mg/mL; Xenotech, Kansas, USA), suspended in 0.1M phosphate buffer (pH 7.4). Incubations were S20

Series [6] is described as follows: Solubility. The series is classed as physicochemical. The note with it: pH 6.5, aqueous buffer. The source says:
Table 1 In Vitro Antiplasmodium Activity, Cytotoxicity, BHIA, and Solubility | column: Solubility pH 6.5, μM

The structures appear in SMILES notation. ≈ marks a conversion by molar mass, not a printed value.

One may read the IC50 as the concentration at which inhibition is half-maximal. Broadly, the solubility is the dissolved amount per volume that the medium holds. Read a high solubility as much dissolved substance. On to `CCN(CCNc1cc2[nH]c(C3CC(F)(F)C3)nc2cn1)Cc1ccc(Cl)cc1O` [Compound 10, 5-Chloro-2-(((2-((2-(3,3-difluorocyclobutyl)-1H-imidazo[4,5-c]pyridin-6-yl)amino)ethyl)(ethyl)amino)methyl)phenol], for which the values for the IC50 in series [1], in series [4] and in series [5] were 5.27 µM, 0.86 µM and 76 µM, respectively. In series [2], this compound registered an IC50 at 44 h greater than 50 µM. For the same compound, in series [3], the “SI (selectivity index) = IC50 CHO/IC50 PfNF54” value is on record as greater than 58.14. The solubility in series [6] amounted to 175 µM (≈ 76.3 µg/mL).

For the compound `CCN(CCNc1cc2[nH]c(C3CCCCC3)nc2cn1)Cc1ccc(Cl)cc1O` [Compound 11, 5-Chloro-2-(((2-((2-cyclohexyl-1H-imidazo[4,5-c]pyridin-6-yl)amino)ethyl)(ethyl)amino)methyl)phenol], the IC50 in series [1] is 2.12 µM; in series [4], 0.69 µM; in series [5] it was 80 µM. This compound also yielded a concentration for half-maximal inhibition (IC50) at 44 h in series [2] greater than 50 µM. Besides, the “SI (selectivity index) = IC50 CHO/IC50 PfNF54” value in series [3] is greater than 72.46. For the same compound, in series [6], the solubility came out at 140 µM (≈ 59.9 µg/mL).

For the compound `CCN(CCNc1cc2[nH]c(C3CCCN3C)nc2cn1)Cc1ccc(Cl)cc1O` (stereo not drawn) [Compound 13, 5-Chloro-2-((ethyl(2-((2-(1-methylpyrrolidin-2-yl)-1H-imidazo[4,5-c]pyridin-6-yl)amino)ethyl)amino)methyl)phenol], the IC50 in series [1] came to 3.9 µM; in series [4], 1.03 µM; in series [5], 285 µM. Further, the IC50 at 44 h in series [2] was greater than 50 µM. The “SI (selectivity index) = IC50 CHO/IC50 PfNF54” value in series [3] is greater than 48.54. This compound yielded a solubility in series [6] of 175 µM (≈ 75.1 µg/mL).

On to `CCN(CCNc1cc2[nH]c(C3CCCCCC3)nc2cn1)Cc1ccc(Cl)cc1O` [Compound 15, 5-Chloro-2-(((2-((2-cycloheptyl-1H-imidazo[4,5-c]pyridin-6-yl)amino)ethyl)(ethyl)amino)methyl)phenol], for which the results for the IC50 in series [1], in series [4] and in series [5] were 2.48 µM, 0.67 µM and 137 µM, respectively. Moreover, in series [2], half-maximal inhibition (IC50 at 44 h) required 50 µM. Moreover, the “SI (selectivity index) = IC50 CHO/IC50 PfNF54” value in series [3] came out at 74.60. The compound further had a solubility in series [6] of 150 µM (≈ 66.3 µg/mL).

`CCN(CCNc1cc2[nH]c([C@H]3CC[C@H](C(F)(F)F)CC3)nc2cn1)Cc1ccc(Cl)cc1O` [Compound 16, 5-Chloro-2-((ethyl(2-((2-((1r,4r)-4-(trifluoromethyl)cyclohexyl)-1H-imidazo[4,5-c]pyridin-6-yl)amino)ethyl)amino)methyl)phenol]: the figures for the IC50 in series [1], in series [4] and in series [5] were 1.89 µM, 0.56 µM and 127 µM, respectively. The half-maximal inhibitory concentration (IC50) at 44 h in series [2] is greater than 50 µM. Also, the “SI (selectivity index) = IC50 CHO/IC50 PfNF54” value in series [3] was greater than 89.29. The compound also gave a solubility in series [6] of 135 µM (≈ 67 µg/mL).

For the compound `CCN(CCNc1cc2[nH]c([C@H]3CC[C@@H](C(F)(F)F)CC3)nc2cn1)Cc1ccc(Cl)cc1O` [Compound 17, 5-Chloro-2-((ethyl(2-((2-((1r,4r)-4-(trifluoromethyl)cyclohexyl)-1H-imidazo[4,5-c]pyridin-6-yl)Amino)ethyl)amino)methyl)phenol], the results for the IC50 in series [1], in series [4] and in series [5] were 1.71 µM, 0.95 µM and 239 µM, respectively. This compound yielded an IC50 at 44 h in series [2] of 49.1 µM. Moreover, in series [3], the “SI (selectivity index) = IC50 CHO/IC50 PfNF54” value was 51.68. Further, in series [6], the solubility amounted to 135 µM (≈ 67 µg/mL).

As for `CCN(CCNc1cc2[nH]c(C3CCC(OC)CC3)nc2cn1)Cc1ccc(Cl)cc1O` (stereo not drawn) [Compound 18, 5-Chloro-2-((ethyl(2-((2-(4-methoxycyclohexyl)-1H-imidazo[4,5-c]pyridin-6-yl)amino)ethyl)amino)methyl)phenol], the concentration for half-maximal inhibition (IC50) turned out to be 2.34 µM in series [1], 2.91 µM in series [4] and 18 µM in series [5]. For the same compound, the IC50 at 44 h in series [2] was greater than 50 µM. The “SI (selectivity index) = IC50 CHO/IC50 PfNF54” value in series [3] is recorded as greater than 17.18. Moreover, the solubility in series [6] was 120 µM (≈ 55 µg/mL).

These data come from publication PMC10111423, “Antimalarial Imidazopyridines Incorporating an Intramolecular Hydrogen Bonding Motif: Medicinal Chemistry and Mechanistic Studies” (ACS Infectious Diseases, 2023).
